Data taken from the NIST ThermoML archive (doi:10.1016/j.jct.2009.02.007).
Numbers after ± are expanded uncertainties.

Assays:
[1] = 101.33 kPa, Liquid, Vibrating tube method
[2] = xn = mol fraction of the nth substance listed; conditions: 101 kPa, Liquid, Vibrating tube method

CCCCn1cc[n+](C)c1.F[B-](F)(F)F [1-butyl-3-methylimidazolium tetrafluoroborate]
mass density ([1]; 298.15 K): 1211.03 ± 1.3 kg/m3
mass density ([1]; 303.15 K): 1197.45 ± 1.3 kg/m3
mass density ([1]; 308.15 K): 1194.6 ± 1.3 kg/m3
mass density ([1]; 313.15 K): 1190.44 ± 1.2 kg/m3

O=Cc1ccccc1 [benzaldehyde]
mass density ([1]; 298.15 K): 1044.2 ± 0.26 kg/m3
mass density ([1]; 303.15 K): 1040.21 ± 0.26 kg/m3
mass density ([1]; 308.15 K): 1036.15 ± 0.26 kg/m3
mass density ([1]; 313.15 K): 1032.15 ± 0.25 kg/m3

O=Cc1ccccc1 [benzaldehyde] + CCCCn1cc[n+](C)c1.F[B-](F)(F)F
mass density ([2]; 298.15 K, x2 = 0.1001): 1078.64 ± 0.34 kg/m3
mass density ([2]; 298.15 K, x2 = 0.1998): 1105.45 ± 0.42 kg/m3
mass density ([2]; 298.15 K, x2 = 0.2997): 1127.3 ± 0.51 kg/m3
mass density ([2]; 298.15 K, x2 = 0.4): 1145.56 ± 0.6 kg/m3
mass density ([2]; 298.15 K, x2 = 0.4999): 1160.76 ± 0.7 kg/m3
mass density ([2]; 298.15 K, x2 = 0.5998): 1173.77 ± 0.81 kg/m3
mass density ([2]; 298.15 K, x2 = 0.6999): 1184.7 ± 0.92 kg/m3
mass density ([2]; 298.15 K, x2 = 0.7971): 1193.8 ± 1 kg/m3
mass density ([2]; 298.15 K, x2 = 0.8991): 1202.44 ± 1.2 kg/m3
mass density ([2]; 303.15 K, x2 = 0.1001): 1072.78 ± 0.34 kg/m3
mass density ([2]; 303.15 K, x2 = 0.1998): 1098.6 ± 0.42 kg/m3
mass density ([2]; 303.15 K, x2 = 0.2997): 1119.46 ± 0.5 kg/m3
mass density ([2]; 303.15 K, x2 = 0.4): 1136.76 ± 0.59 kg/m3
mass density ([2]; 303.15 K, x2 = 0.4999): 1151.14 ± 0.69 kg/m3
mass density ([2]; 303.15 K, x2 = 0.5998): 1163.4 ± 0.79 kg/m3
mass density ([2]; 303.15 K, x2 = 0.6999): 1173.86 ± 0.9 kg/m3
mass density ([2]; 303.15 K, x2 = 0.7971): 1182.59 ± 1 kg/m3
mass density ([2]; 303.15 K, x2 = 0.8991): 1190.51 ± 1.1 kg/m3
mass density ([2]; 308.15 K, x2 = 0.1001): 1068.6 ± 0.33 kg/m3
mass density ([2]; 308.15 K, x2 = 0.1998): 1094.81 ± 0.41 kg/m3
mass density ([2]; 308.15 K, x2 = 0.2997): 1116.11 ± 0.5 kg/m3
mass density ([2]; 308.15 K, x2 = 0.4): 1133.67 ± 0.59 kg/m3
mass density ([2]; 308.15 K, x2 = 0.4999): 1148.32 ± 0.68 kg/m3
mass density ([2]; 308.15 K, x2 = 0.5998): 1160.74 ± 0.78 kg/m3
mass density ([2]; 308.15 K, x2 = 0.6999): 1171.52 ± 0.89 kg/m3
mass density ([2]; 308.15 K, x2 = 0.7971): 1180.59 ± 1 kg/m3
mass density ([2]; 308.15 K, x2 = 0.8991): 1188.53 ± 1.1 kg/m3
mass density ([2]; 313.15 K, x2 = 0.1001): 1064.7 ± 0.33 kg/m3
mass density ([2]; 313.15 K, x2 = 0.1998): 1090.93 ± 0.41 kg/m3
mass density ([2]; 313.15 K, x2 = 0.2997): 1112.3 ± 0.49 kg/m3
mass density ([2]; 313.15 K, x2 = 0.4): 1129.92 ± 0.58 kg/m3
mass density ([2]; 313.15 K, x2 = 0.4999): 1144.5 ± 0.68 kg/m3
mass density ([2]; 313.15 K, x2 = 0.5998): 1156.92 ± 0.78 kg/m3
mass density ([2]; 313.15 K, x2 = 0.6999): 1167.64 ± 0.89 kg/m3
mass density ([2]; 313.15 K, x2 = 0.7971): 1176.6 ± 1 kg/m3
mass density ([2]; 313.15 K, x2 = 0.8991): 1184.48 ± 1.1 kg/m3
